For 24 molecules, IC50 results are on record in patent US10543212B2, “Substituted amines for treating cardiac diseases” (Cardurion Pharmaceuticals, LLC, priority 2017, dated 2020).

pIC50: −log10 of the molar value. Bounds are passed on as bounds.

T1 sequence (Q13557 1-478 isoform Q13557-12): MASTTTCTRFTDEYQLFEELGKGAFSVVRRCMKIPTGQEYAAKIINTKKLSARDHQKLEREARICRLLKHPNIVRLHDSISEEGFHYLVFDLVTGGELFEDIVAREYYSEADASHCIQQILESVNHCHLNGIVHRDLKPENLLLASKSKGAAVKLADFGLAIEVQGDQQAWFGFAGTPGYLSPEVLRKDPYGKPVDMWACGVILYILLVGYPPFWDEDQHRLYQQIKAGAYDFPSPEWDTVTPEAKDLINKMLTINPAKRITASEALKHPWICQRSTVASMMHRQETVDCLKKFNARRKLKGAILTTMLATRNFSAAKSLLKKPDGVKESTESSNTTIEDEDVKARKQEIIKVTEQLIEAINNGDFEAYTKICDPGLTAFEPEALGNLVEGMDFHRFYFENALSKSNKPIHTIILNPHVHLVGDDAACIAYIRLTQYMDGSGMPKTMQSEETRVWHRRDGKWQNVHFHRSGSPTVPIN

The first assay has as its target T1, Full-length, GST-tagged, human CaMKIIδ (Homo sapiens, UniProt Q13557).
T1 construct: Full-Length, Glutathione-S-Transferase(GST)-Tagged, Human CaMKIIδ was purchased from Carna Biosciences; purchased Carna Biosciences 02-111
Put plainly: CaMKIIδ binding assay (TR-FRET with BODIPY-labeled probe ligand). The settings on record: CaMKIIδ binding assay, results of Table 2. The method in brief: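 TR-FRET probe-displacement binding: 0.5 nM GST-CaMKIIδ with 10 μg/mL calmodulin, 1 mM CaCl2, 0.21 nM Tb-anti-GST Ab and 300 nM BODIPY probe in HEPES pH 7.6 buffer. Eight-point 4-fold dilutions, 1 hr at room temperature. IC50 from logistic fit; 100% inhibition defined by 3 μM parent compound.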
Turning to `COc1cc2c(cc1Nc1ncc(-c3ccc(Cl)c(O[C@@H](C)Cn4cnnn4)c3)cn1)CN(CCO)CC2` [Example 511, (S)-2-(7-((5-(3-((1-(1H-tetrazol-1-yl)propan-2-yl)oxy)-4-chlorophenyl)pyrimidin-2-yl)amino)-6-methoxy-3,4-dihydroisoquinolin-2(1H)-yl)ethan-1-ol], the negative logarithm of the IC50 (pIC50) (commonly the negative decadic logarithm of the IC50, by convention in mol/L) was greater than 8.00.
As for `C[C@@H](Cn1cnnn1)Oc1cc(-c2cnc(Nc3ccc4c(c3)CCN4)nc2)ccc1Cl` [Example 451, (S)-N-(5-(3-((1-(1H-tetrazol-1-yl)propan-2-yl)oxy)-4-chlorophenyl)pyrimidin-2-yl)indolin-5-amine], the pIC50 was 7.00 to 8.00.
With `COc1cc2c(cc1Nc1ncc(-c3ccc(Cl)c(O[C@@H](C)Cn4cnnn4)c3)cn1)C(=O)N(CC1COC1)C2` [Example 445, (S)-6-((5-(3-((1-(1H-tetrazol-1-yl)propan-2-yl)oxy)-4-chlorophenyl)pyrimidin-2-yl)amino)-5-methoxy-2-(oxetan-3-ylmethyl)isoindolin-1-one], the pIC50 is 7.00 to 8.00.
`COc1cc2c(cc1Nc1ncc(-c3ccc(C#N)c(O[C@@H](C)Cn4cncn4)c3)cn1)C(=O)N(C1CCC1)C2` [Example 443, (S)-2-((1-(1H-1,2,4-triazol-1-yl)propan-2-yl)oxy)-4-(2-((2-cyclobutyl-6-methoxy-3-oxoisoindolin-5-yl)amino)pyrimidin-5-yl)benzonitrile]: the negative logarithm of the IC50 (pIC50) is 7.00 to 8.00.
Consider `COc1cnc(N2CCCC(N3CCOCC3)C2)cc1Nc1ncc(-c2ccc(Cl)c(O[C@@H](C)Cn3cnnn3)c2)cn1` (stereo partly drawn) [Example 457, 5-(3-(((S)-1-(1H-tetrazol-1-yl)propan-2-yl)oxy)-4-chlorophenyl)-N-(5-methoxy-2-(3-morpholinopiperidin-1-yl)pyridin-4-yl)pyrimidin-2-amine], for which the pIC50 was 7.00 to 8.00.
The same measure, in the same setting: as for `C[C@@H](Cn1cnnn1)Oc1cc(-c2cnc(Nc3cc4c(cc3Cl)CCN(C3CCOCC3)CC4)nc2)ccc1C#N` [Example 538, (S)-2-((1-(1H-tetrazol-1-yl)propan-2-yl)oxy)-4-(2-((8-chloro-3-(tetrahydro-2H-pyran-4-yl)-2,3,4,5-tetrahydro-1H-benzo[d]azepin-7-yl)amino)pyrimidin-5-yl)benzonitrile], the figure is greater than 8.00.

Still in this assay, the particulars now being: CaMKIIδ binding assay; activity class per Table 2.
Consider `CC(Cn1cnnn1)Oc1cc(-c2cnc(Nc3cn(CC4(O)CCC(C)(O)CC4)nc3OCC(F)(F)F)nc2)ccc1Cl` [Example 923, trans-1-((4-((5-(3-(((S)-1-(1H-tetrazol-1-yl)propan-2-yl)oxy)-4-chlorophenyl)pyrimidin-2-yl)amino)-3-(2,2,2-trifluoroethoxy)-1H-pyrazol-1-yl)methyl)-4-methylcyclohexane-1,4-diol], for which the pIC50 is greater than 8.00.
The same measure, in the same setting: then `Cc1nccc(N2CC3(CC(n4cc(Nc5ncc(-c6ccc(Cl)c(O[C@@H](C)Cn7cnnn7)c6)cn5)c(OCC(F)(F)F)n4)C3)C2)n1` [Example 1000, (S)-5-(3-((1-(1H-tetrazol-1-yl)propan-2-yl)oxy)-4-chlorophenyl)-N-(1-(2-(2-methylpyrimidin-4-yl)-2-azaspiro[3.3]heptan-6-yl)-3-(2,2,2-trifluoroethoxy)-1H-pyrazol-4-yl)pyrimidin-2-amine], with greater than 8.00.
Turning to `C[C@@H](Cn1cnnn1)Oc1cc(-c2cnc(Nc3cn(C4(CO)CCC4)nc3OCC(F)(F)F)nc2)ccc1Cl` [Example 914, (S)-(1-(4-((5-(3-((1-(1H-tetrazol-1-yl)propan-2-yl)oxy)-4-chlorophenyl)pyrimidin-2-yl)amino)-3-(2,2,2-trifluoroethoxy)-1H-pyrazol-1-yl)cyclobutyl)methanol], the pIC50 was greater than 8.00.
As to `COc1cccc(Cn2cc(Nc3ncc(-c4ccc(Cl)c(O[C@@H](C)Cn5cnnn5)c4)cn3)c(OCC(F)(F)F)n2)n1` [Example 928, (S)-5-(3-((1-(1H-tetrazol-1-yl)propan-2-yl)oxy)-4-chlorophenyl)-N-(1-((6-methoxypyridin-2-yl)methyl)-3-(2,2,2-trifluoroethoxy)-1H-pyrazol-4-yl)pyrimidin-2-amine], the pIC50 was 7.00 to 8.00.
Still for that read-out and setting: as for `CC(C)c1nn(C2CC3(C2)CN(CC(C)(C)O)C3)cc1Nc1ncc(-c2ccc(Cl)c(O[C@@H](C)Cn3cnnn3)c2)cn1` [Example 947, (S)-1-(6-(4-((5-(3-((1-(1H-tetrazol-1-yl)propan-2-yl)oxy)-4-chlorophenyl)pyrimidin-2-yl)amino)-3-isopropyl-1H-pyrazol-1-yl)-2-azaspiro[3.3]heptan-2-yl)-2-methylpropan-2-ol], the figure is greater than 8.00; as for `C[C@@H](Cn1cnnn1)Oc1cc(-c2cnc(Nc3cn(CCNC(N)=O)nc3C(F)(F)F)nc2)ccc1Cl` [Example 887, (S)-1-(2-(4-((5-(3-((1-(1H-tetrazol-1-yl)propan-2-yl)oxy)-4-chlorophenyl)pyrimidin-2-yl)amino)-3-(trifluoromethyl)-1H-pyrazol-1-yl)ethyl)urea], 7.00 to 8.00; as for `C[C@@H](Cn1cnnn1)Oc1cc(-c2cnc(Nc3cn(C4CC5(C4)CN(C4CCC4)C5)nc3OCC(F)(F)F)nc2)ccc1Cl` [Example 933, (S)-5-(3-((1-(1H-tetrazol-1-yl)propan-2-yl)oxy)-4-chlorophenyl)-N-(1-(2-cyclobutyl-2-azaspiro[3.3]heptan-6-yl)-3-(2,2,2-trifluoroethoxy)-1H-pyrazol-4-yl)pyrimidin-2-amine], greater than 8.00.

The same assay, now with this note: Table 2; CaMKIIδ binding assay, activity given as class A/B/C.
With `C[C@@H](Cn1cnnn1)Oc1cc(-c2cnc(Nc3cn(C4CCN(C5CCOCC5)CC4)nc3OCCF)nc2)ccc1Cl` [Example 825, (S)-5-(3-((1-(1H-tetrazol-1-yl)propan-2-yl)oxy)-4-chlorophenyl)-N-(3-(2-fluoroethoxy)-1-(1-(tetrahydro-2H-pyran-4-yl)piperidin-4-yl)-1H-pyrazol-4-yl)pyrimidin-2-amine], the pIC50 was greater than 8.00.
The molecule `C[C@@H](Cn1cnnn1)Oc1cc(-c2cnc(Nc3cc(N4CCN(C5CCOCC5)CC4)ccc3OC(F)(F)F)nc2)ccc1Cl` [Example 768, (S)-5-(3-((1-(1H-tetrazol-1-yl)propan-2-yl)oxy)-4-chlorophenyl)-N-(5-(4-(tetrahydro-2H-pyran-4-yl)piperazin-1-yl)-2-(trifluoromethoxy)phenyl)pyrimidin-2-amine] gave a pIC50 greater than 8.00.

Staying with this assay, now noted: Table 2; activity class for CaMKIIδ.
As for `CCn1cc(Nc2ncc(-c3ccc(Cl)c(O[C@@H](C)Cn4cnnn4)c3)cn2)c(C2CC2)n1` [Example 642, (S)-5-(3-((1-(1H-tetrazol-1-yl)propan-2-yl)oxy)-4-chlorophenyl)-N-(3-cyclopropyl-1-ethyl-1H-pyrazol-4-yl)pyrimidin-2-amine], the pIC50 is 7.00 to 8.00.
On to `C[C@@H](Cn1cnnn1)Oc1cc(-c2cnc(Nc3cn(C4CCC(O)CC4)nc3C(F)(F)F)nc2)ccc1Cl` (stereo partly drawn) [Example 670, (S)-4-(4-((5-(3-((1-(1H-tetrazol-1-yl)propan-2-yl)oxy)-4-chlorophenyl)pyrimidin-2-yl)amino)-3-(trifluoromethyl)-1H-pyrazol-1-yl)cyclohexan-1-ol], for which the negative logarithm of the IC50 (pIC50) is 7.00 to 8.00.
For `C[C@@H](Cn1cnnn1)Oc1cc(-c2cnc(Nc3cn([C@H]4CC[C@@H](C(=O)O)CC4)nc3C(F)(F)F)nc2)ccc1Cl` [Example 625, cis-(S)-4-(4-((5-(3-((1-(1H-tetrazol-1-yl)propan-2-yl)oxy)-4-chlorophenyl)pyrimidin-2-yl)amino)-3-(trifluoromethyl)-1H-pyrazol-1-yl)cyclohexane-1-carboxylic acid], the pIC50 is no more than 7.00.
Same read-out and setting: as for `COc1nc(N2CCN(CC(F)(F)F)CC2)ccc1Nc1ncc(-c2ccc(Cl)c(O[C@@H](C)Cn3cnnn3)c2)cn1` [Example 637, (S)-5-(3-((1-(1H-tetrazol-1-yl)propan-2-yl)oxy)-4-chlorophenyl)-N-(2-methoxy-6-(4-(2,2,2-trifluoroethyl)piperazin-1-yl)pyridin-3-yl)pyrimidin-2-amine], the figure is no more than 7.00.
The molecule `COc1nn(C2CCN(C3CCOCC3)CC2)cc1Nc1ncc(-c2ccc(Cl)c(O[C@@H](C)Cn3cnnn3)c2)cn1` [Example 662, (S)-5-(3-((1-(1H-tetrazol-1-yl)propan-2-yl)oxy)-4-chlorophenyl)-N-(3-methoxy-1-(1-(tetrahydro-2H-pyran-4-yl)piperidin-4-yl)-1H-pyrazol-4-yl)pyrimidin-2-amine] showed a negative logarithm of the IC50 (pIC50) greater than 8.00.
The same measure, in the same setting: then `C[C@@H](Cn1cnnn1)Oc1cc(-c2cnc(Nc3cn(CCOC(F)(F)F)nc3C(F)(F)F)nc2)ccc1Cl` [Example 727, (S)-5-(3-((1-(1H-tetrazol-1-yl)propan-2-yl)oxy)-4-chlorophenyl)-N-(1-(2-(trifluoromethoxy)ethyl)-3-(trifluoromethyl)-1H-pyrazol-4-yl)pyrimidin-2-amine], with 7.00 to 8.00; and `C[C@@H](Cn1cnnn1)Oc1cc(-c2cnc(Nc3cn([C@@H]4C[C@H]5CC[C@@H](C4)N5C4CCOCC4)nc3C(F)(F)F)nc2)ccc1Cl` [Example 703, 5-(3-(((S)-1-(1H-tetrazol-1-yl)propan-2-yl)oxy)-4-chlorophenyl)-N-(1-((1R,3s,5S)-8-(tetrahydro-2H-pyran-4-yl)-8-azabicyclo[3.2.1]octan-3-yl)-3-(trifluoromethyl)-1H-pyrazol-4-yl)pyrimidin-2-amine], with greater than 8.00.
Take `COc1cc(N2CCN(C3CCOCC3)CC2)ncc1Nc1ncc(-c2ccc(Cl)c(O[C@@H](C)Cn3cnnn3)c2)cn1` [Example 650, (S)-5-(3-((1-(1H-tetrazol-1-yl)propan-2-yl)oxy)-4-chlorophenyl)-N-(4-methoxy-6-(4-(tetrahydro-2H-pyran-4-yl)piperazin-1-yl)pyridin-3-yl)pyrimidin-2-amine]: the pIC50 was greater than 8.00.
`C[C@@H](Cn1cnnn1)Oc1cc(-c2cnc(Nc3cc(N4CCN(C5CCOCC5)CC4)ncc3OC(F)(F)F)nc2)ccc1Cl` [Example 705, (S)-5-(3-((1-(1H-tetrazol-1-yl)propan-2-yl)oxy)-4-chlorophenyl)-N-(2-(4-(tetrahydro-2H-pyran-4-yl)piperazin-1-yl)-5-(trifluoromethoxy)pyridin-4-yl)pyrimidin-2-amine] showed a negative-log IC50 (pIC50) greater than 8.00.
